Measured values published in patent publication US4927820A, “Fused heterocyclic derivatives of 1,2,3,4-tetrahydroacridine” (priority 1988, dated 1990).

Assays:
acetylcholinesterase = acetylcholinesterase (Homo sapiens, UniProt P22303); test: Cholinesterase inhibition assay (photometric method of Ellman et al.); format: biochemical
[1] = tested on: scopolamine induced memory deficit in mice; test: Dark Avoidance Assay (reversal of scopolamine induced memory deficit); format: in vivo; conditions: retest 24 hours later
Method: This utility can also be ascertained by determining the ability of these compounds to restore cholinergically deficient memory in the Dark Avoidance Assay. In this assay mice are tested for their ability to remember an unpleasant stimulus for a period of 24 hours. A mouse is placed in a chamber that contains a dark compartment; a strong incadescent light drives it to the dark compartment, where an electric shock is administered through metal plates on the floor. The animal is removed from the testing apparatus and tested again, 24 hours later, for the ability to remember the electric shock.
If scopolamine, an anticholinergic that is known to cause memory impairment, is administered before an animal's initial exposure to the test chamber, the animal re-enters the dark compartment shortly after being placed in the test chamber 24 hours later. This effect of scopolamine is blocked by an active test compound, resulting in a greater interval before re-entry into the dark compartment.
The results for an active compound are expressed as the percent of a group of animals in which the effect of scopolamine is blocked, as manifested by an increased interval between being placed in the test chamber and re-entering the dark compartment.

Chain of acetylcholinesterase (P22303 32-614): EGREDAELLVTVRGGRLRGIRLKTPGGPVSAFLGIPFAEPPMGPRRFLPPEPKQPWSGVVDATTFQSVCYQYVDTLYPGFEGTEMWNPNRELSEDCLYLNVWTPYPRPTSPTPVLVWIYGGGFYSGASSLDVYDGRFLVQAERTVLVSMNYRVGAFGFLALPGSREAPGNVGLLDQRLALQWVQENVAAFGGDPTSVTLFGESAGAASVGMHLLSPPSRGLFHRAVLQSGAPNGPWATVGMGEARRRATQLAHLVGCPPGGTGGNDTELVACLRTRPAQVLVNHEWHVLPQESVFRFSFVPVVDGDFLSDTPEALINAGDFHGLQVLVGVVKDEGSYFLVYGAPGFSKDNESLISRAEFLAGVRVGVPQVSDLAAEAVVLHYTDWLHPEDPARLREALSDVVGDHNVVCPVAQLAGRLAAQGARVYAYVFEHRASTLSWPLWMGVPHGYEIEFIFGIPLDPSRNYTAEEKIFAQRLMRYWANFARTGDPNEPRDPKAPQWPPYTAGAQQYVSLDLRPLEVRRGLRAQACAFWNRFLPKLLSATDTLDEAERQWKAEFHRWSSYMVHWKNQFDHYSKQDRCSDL

Compound	IC50 (acetylcholinesterase)	% of animals with scopolamine induced memory deficit reversal ([1]; dose 5.0 mg/kg body weight)	% of animals with scopolamine induced memory deficit reversal ([1]; dose 0.31 mg/kg body weight, reference)
Fc1ccc(C2Nc3c4c(nc5ccccc35)CCCC4O2)cc1 (stereo not shown) [2-(4-Fluorophenyl)-1,2,3a,4,5,6-hexahydro[1,3]oxazino[6,5,4-kl]acridine]	21 µM	–	–
c1ccc(C2Nc3c4c(nc5ccccc35)CCCC4O2)cc1 (stereo not shown) [2-Phenyl-1,2,3a,4,5,6-hexahydro[1,3]oxazino[6,5,4-kl]acridine]	36 µM	27%	–
CNC(=O)Oc1ccc2c(c1)[C@]1(C)CCN(C)[C@@H]1N2C [Physostigmine, reference compound]	–	–	20%
